Assay results: publication PMC3744471, “Mitochondria Are the Target Organelle of Differentiation-Inducing Factor-3, an Anti-Tumor Agent Isolated from Dictyostelium Discoideum” (PLoS ONE, 2013)

Legend:
HeLa cells = assay: Cell growth assay (Alamar blue), HeLa; type: cell-based, human; details: 3 days; for Effect on cell growth (relative cell number): HeLa; for IC50: Homo sapiens, 72 h, HeLa cells, Alamar blue
Experimental: HeLa, LM8, and 3T3-L1 cells were cultured for 3 days at 2.5–5×10^3 cells/well in 12-well plates with each well filled with 1 ml of DMEM-FBS (for HeLa and 3T3-L1) or MEM-α-FBS (for LM8) together with drugs at various concentrations. Then, the incubation media were discarded and the cells were washed with 1 ml of PBS(–) (20 mM phosphate buffered saline, pH 7.4) and incubated with 1 ml of fresh DMEM-FBS (HeLa and 3T3-L1) or MEM-α-FBS (LM8) containing 5% (v/v) of Alamar blue (a cell number indicator; Wako Pure Chemical Industries, Osaka, Japan) until the color changed. […] Relative cell numbers were determined for each concentration for each drug and the IC50 was determined from the dose-response curves.

mouse liver mitochondria = assay: Mitochondrial oxygen consumption (Clark-type oxygen electrode); type: biochemical; details: for Effect on basal rate of O2 consumption: 1–100 µM; for PC100 (µM) for Mito. O2 consumption: 100% promoting concentration: doubles the basal rate of oxygen consumption, 30°C
Experimental: Mitochondria were isolated from mouse liver (ICR; 7–10 week-old females) by differential centrifugation as described previously. Cells were homogenized in a Potter glass homogenizer with H-Buffer (250 mM sucrose, 10 mM Tris-HCl pH 7.4), and centrifuged at 800g for 1 min at 4°C. The supernatant was centrifuged at 6,000g for 5 min, and the resulting pellet, the crude mitochondrial fraction, was suspended in H-Buffer. The suspension was layered over a discontinuous sucrose gradient consisting of 1.1 M and 1.6 M sucrose in a Tris buffer (10 mM Tris-HCl pH 7.4), and centrifuged for 3 h at 90,000g at 4°C. The interface was collected in Tris buffer and centrifuged at 6,000g for 5 min. The resulting pellets were suspended in Tris buffer and used for experiments after confirming the presence of the mitochondrial marker cytochrome c.
Mitochondrial oxygen consumption was determined using a Clark-type oxygen electrode (Strathkelvin Instruments Ltd., North Lanarkshire, Scotland) as described, [39]. The mitochondria-enriched fraction was incubated at 30°C in oxygen measurement buffer (225 mM mannitol, 75 mM sucrose, 10 mM KCl, 0.1 mM EDTA, 3 mM phosphate, 5 mM succinate, 5 mM glutamate, and 20 mM Tris-HCl pH 7.4) in the presence or absence of various concentrations of the DIF-like molecules or CCCP. After recording ‘State 4’ of the respiration reaction, an aliquot of ADP was added to a final concentration of 200 µM to induce ‘State 3’. The PC100 (100% promoting concentration) of each additive was defined as the drug concentration that doubled the basal rate of oxygen consumption during State 3, which was calculated from the dose-response plot for the rate of oxygen consumption (Figure 8).

[1] = tested on: mitochondria in HeLa cells; assay: Mitochondrial morphology by fluorescence microscopy; type: cell-based, human; details: BODIPY-DIF-3 20 µM 1 day, Bu-DIF-3 5 µM, CCCP 10 µM 3 days
Experimental: For high magnification multi-color imaging, cells were incubated for the appropriate times with 2 ml of DMEM-FBS (HeLa and 3T3-L1) or MEM-α-FBS (LM8) containing various compounds in 35-mm plastic dishes (tissue culture treated µ-Dish; ibidi, Martinsried, Germany). The cells were washed twice with 2 ml of PBS(–), submerged in 2 ml of Hepes buffer (pH 7.4), and observed at room temperature with a Keyence BZ-9000 fluorescence microscope (Osaka, Japan) equipped with an oil immersion 100× lens (CFI Plan Apo VC100XH) and multi-filters that can distinguish four fluorescent probes simultaneously. Original digitized images of z-stack sections were taken at 0.4- µm intervals, which were then treated (haze-reduced) with the Keyence BZ analyzer software (for deconvolution fluorescence imaging), and compiled into 3D images; when 3D images were constructed, nonlinear adjustment was performed to obtain clear (high contrast) images without haze. All color images are presented in pseudo colors.

LM8 cells = assay: Cell growth assay (Alamar blue), LM8; type: cell-based, mouse; details: for Effect on cell growth in LM8 cells: BODIPY-DIF-3 5–20 µM, CCCP 2–10 µM, 4 days; for IC50: Mus musculus, 72 h, LM8 cells, 3 days, Alamar blue
Experimental: HeLa, LM8, and 3T3-L1 cells were cultured for 3 days at 2.5–5×10^3 cells/well in 12-well plates with each well filled with 1 ml of DMEM-FBS (for HeLa and 3T3-L1) or MEM-α-FBS (for LM8) together with drugs at various concentrations. Then, the incubation media were discarded and the cells were washed with 1 ml of PBS(–) (20 mM phosphate buffered saline, pH 7.4) and incubated with 1 ml of fresh DMEM-FBS (HeLa and 3T3-L1) or MEM-α-FBS (LM8) containing 5% (v/v) of Alamar blue (a cell number indicator; Wako Pure Chemical Industries, Osaka, Japan) until the color changed. The relative cell number was assessed by measuring absorbance at 570 nm (reference at 595 nm) as described previously, [14]; DIF-related compounds and BODIPY-conjugated compounds hardly disturbed the cell number assessment with Alamar blue (data not shown), probably because the additive compounds were washed out when cell number was assessed. For determination of the 50% inhibitory concentration (IC50) of each drug, the cells were cultured for 3 days in the presence of each drug at various concentrations. Relative cell numbers were determined for each concentration for each drug and the IC50 was determined from the dose-response curves.
Supplementary file pone.0072118.s001.tif: Figure S1 Effects of BODIPY-DIF-3 and CCCP on cell growth, and cellular localization of BODIPY-DIF-3 in LM8 cells. (A) Cells were incubated for 4 days with 5–20 µM of BODIPY-DIF-3 (closed circles) or 2–10 µM of CCCP (closed triangles), and relative cell number was assessed by the use of Alamar blue. Data are the mean values and SD (bars) of three independent experiments. (B) Cells were incubated for 0.5 h or 3 days with 20 µM of BODIPY-DIF-3, washed free of the additive, and observed microscopically. (C) Cells were incubated for 0.5 h with BODIPY-DIF-3 (20 µM), Hoechst (0.1 µg/ml), and MitoTracker (0.1 µM), washed free of the additives, and observed by using a high-magnification fluorescence microscope. (D) Cells were incubated for 3 days with BODIPY-DIF-3 (20 µM) and then for 0.5 h with Hoechst (0.1 µg/ml) and MitoTracker (0.1 µM). Cells were washed free of the additives and observed by using a high-magnification fluorescence microscope. (TIF) Click here for additional data file.

| Compound | Effect on cell growth (relative cell number) (HeLa cells; 5–20 µM (Bu-BODIPY up to 20 µM)) | IC50 (HeLa cells) [µM] | Effect on basal rate of O2 consumption (mouse liver mitochondria) | PC100 (µM) for Mito. O2 consumption (mouse liver mitochondria) [µM] | Mitochondrial swelling [1] | Effect on cell growth in LM8 cells (LM8 cells) | IC50 (LM8 cells) [µM] | Effect on cell growth (relative cell number) (HeLa cells; 20 µM) | Effect on cell growth (relative cell number) (HeLa cells; CCCP 10 µM, azide 0.01%) | Effect on mitochondrial O2 consumption (mouse liver mitochondria; 0.1–1 µM) |
| --- | --- | --- | --- | --- | --- | --- | --- | --- | --- | --- |
| CCCCCC(=O)c1c(O)cc(OCCCCNC(=O)CCC2=[N+]3C(=Cc4c(C)cc(C)n4[B-]3(F)F)C=C2)c(Cl)c1O [BODIPY-DIF-3] | suppressed in a dose-dependent manner | 13.2 | dose-dependently promoted | 25 | caused many mitochondria to swell in most cells within 1 day | dose-dependently suppressed cell growth | 12.2 | – | – | – |
| CCCCCC(=O)c1c(O)cc(OCCCC)c(Cl)c1O [Bu-DIF-3, 1-(3-chloro-2,6-dihydroxy-4-butoxyphenyl)hexan-1-one] | – | 3.2 | dose-dependently promoted | 1.7 | the mitochondria in all cells swelled greatly | – | 2 | significantly suppressed | – | – |
| N#CC(C#N)=NNc1cccc(Cl)c1 [CCCP, carbonyl cyanide m-chlorophenylhydrazone, reference compound] | – | 5.2 | – | 0.43 | Mitochondrial swelling was induced in most HeLa cells | dose-dependently suppressed cell growth | 6.8 | – | significantly suppressed | promoted mitochondrial O2 consumption in a dose-dependent manner |
| CCCCCC(=O)c1c(O)cc(OC)c(Cl)c1O [DIF-3, 1-(3-chloro-2,6-dihydroxy-4-methoxyphenyl)hexan-1-one] | – | 14.5 | dose-dependently promoted | 12 | the mitochondria in all cells swelled greatly | – | 15.5 | significantly suppressed | – | – |
